Test results: patent publication US20150368248A1, “2-SUBSTITUTED-6-BIARYLMETHYLAMINO-9-CYCLOPENTYL-9H-PURINE DERIVATIVES, USE THEREOF AS MEDICAMENTS, AND PHARMACEUTICAL COMPOSITIONS” (UNIVERZITA PALACKEHO V OLOMOUCI, priority 2013, published 2015)
Where two headings read alike, the source gives them in different places.

Key:
Hep3B = assay: MTT cytotoxicity assay (Example 30); type: cell-based, human; conditions: Homo sapiens, Hep3B, 72 h; MTT, three days after drug addition; read-out: Inhibitory concentration IC50, Hep3B
Method: (§1) Cytotoxicity of the compounds is the major property determining their anticancer effect in vivo. One of the parameters used, as the basis for cytotoxicity assays, is the metabolic activity of viable cells.
(§2) We have been using the following cell lines: HUH-7 and PLC/PRF/5 cell lines were maintained in DMEM supplemented with 10% fetal bovine serum, penicillin (100 U/ml) and streptomycin (100 μg/ml). […] HepG2 cell line was maintained in EMEM supplemented with 10% fetal bovine serum, sodium pyruvate (0.11 g/1), penicillin (100 U/ml) and streptomycin (100 μg/ml). All cell lines were cultivated at 37° C. in 5% CO2. For cytotoxicity assays, 3000 cells (10000 cells in case of HepG2 cell line) were seeded into each well of 96 well plate and the next day tested compounds were added at various concentrations in triplicates. Three days after drug addition MTT stock solution (5 mg/ml) was added into each well and incubated for 4 h. After this incubation period, produced formazan was dissolved by DMSO and final absorbance was measured at 570 nm with Synergy H4 Hybrid Multi-Mode Microplate Reader.

HCC-1.2 (3p) = assay: MTT cytotoxicity assay (Example 30); type: cell-based; conditions: Homo sapiens, HCC-1.2, 72 h; MTT, three days after drug addition; read-out: Inhibitory concentration IC50, 3p
Method: as §1, §2

HCC-1.1 (3sp) = assay: MTT cytotoxicity assay (Example 30); type: cell-based; conditions: Homo sapiens, 72 h; MTT, three days after drug addition; read-out: Inhibitory concentration IC50, 3sp
Method: as §1, §2

PLC/PRF/5 = assay: MTT cytotoxicity assay (Example 30); type: cell-based; conditions: Homo sapiens, PLC-PRF-5, 72 h; MTT, three days after drug addition; read-out: Inhibitory concentration IC50, PLC/PRF/5
Method: as §1, §2

HUH-7 = assay: MTT cytotoxicity assay (Example 30); type: cell-based; conditions: Homo sapiens, Huh-7, 72 h; MTT, three days after drug addition; read-out: Inhibitory concentration IC50, HUH-7
Method: as §1, §2

[1] = tested on: human umbilical vein endothelial cells (HUVEC); assay: HUVEC proliferation, Calcein AM; type: cell-based; conditions: Homo sapiens, HUVEC, read-out: Inhibitory concentration for HUVEC cells - IC50
Method: Novel 2-substituted-6-biarylmethylamino-9-cyclopentyl-9H-purine derivatives were tested for their potential anti-angiogenic properties; we analyzed its influence on the proliferation (Tab. 9), migration and tube formation of human umbilical vein endothelial cells (HUVEC). Confluent HUVECs were seeded in 96-well microtiter plates to detect their proliferation for 24 or 72 h using Calcein AM solution (Invitrogen) and a Fluoroskan Ascent microplate reader (Labsystems) as described previously (Krystof et al., 2011, Eur J Med Chem. 2011 September; 46(9):4289-94).

[2] = tested on: human umbilical vein endothelial cells (HUVECs); assay: Migration scratch assay; type: cell-based; parameters: key to Wound area: ++: open; +: partly open; 0: closed; conditions: 24 h
Method: Migration assay was performed as described previously (Krystof et al., 2011, Eur J Med Chem.; 46(9):4289-94). Briefly, confluent HUVECs were scratched and immediately treated for 24 h with various doses of compounds. After incubation each well was photographed using a DP Controller system (Olympus) connected to a Olympus BX50 microscope. Migration was expressed as the proportion of pixels of the wound area in the image that were not covered by cells using “in house” software.

CDK9/Cyclin T1 = target: T1, CDK9/Cyclin T1 (Homo sapiens, UniProt P50750); assay: Kinase inhibition assay, recombinant kinase, [γ-33P]ATP; type: biochemical
T1 construct: purchased ProQinase GmbH (Freiburg, Germany)
T1 sequence (P50750 whole entry): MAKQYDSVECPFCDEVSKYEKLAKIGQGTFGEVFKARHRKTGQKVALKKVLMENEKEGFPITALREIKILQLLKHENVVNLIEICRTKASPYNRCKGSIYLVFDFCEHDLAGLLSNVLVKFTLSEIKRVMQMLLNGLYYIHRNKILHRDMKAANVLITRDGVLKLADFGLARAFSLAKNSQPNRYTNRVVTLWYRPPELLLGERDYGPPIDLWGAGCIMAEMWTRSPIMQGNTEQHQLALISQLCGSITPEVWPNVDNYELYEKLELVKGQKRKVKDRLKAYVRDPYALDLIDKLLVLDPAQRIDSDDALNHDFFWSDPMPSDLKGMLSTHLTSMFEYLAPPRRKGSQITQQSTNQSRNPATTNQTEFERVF
T1 sequence (O60563 whole entry partner): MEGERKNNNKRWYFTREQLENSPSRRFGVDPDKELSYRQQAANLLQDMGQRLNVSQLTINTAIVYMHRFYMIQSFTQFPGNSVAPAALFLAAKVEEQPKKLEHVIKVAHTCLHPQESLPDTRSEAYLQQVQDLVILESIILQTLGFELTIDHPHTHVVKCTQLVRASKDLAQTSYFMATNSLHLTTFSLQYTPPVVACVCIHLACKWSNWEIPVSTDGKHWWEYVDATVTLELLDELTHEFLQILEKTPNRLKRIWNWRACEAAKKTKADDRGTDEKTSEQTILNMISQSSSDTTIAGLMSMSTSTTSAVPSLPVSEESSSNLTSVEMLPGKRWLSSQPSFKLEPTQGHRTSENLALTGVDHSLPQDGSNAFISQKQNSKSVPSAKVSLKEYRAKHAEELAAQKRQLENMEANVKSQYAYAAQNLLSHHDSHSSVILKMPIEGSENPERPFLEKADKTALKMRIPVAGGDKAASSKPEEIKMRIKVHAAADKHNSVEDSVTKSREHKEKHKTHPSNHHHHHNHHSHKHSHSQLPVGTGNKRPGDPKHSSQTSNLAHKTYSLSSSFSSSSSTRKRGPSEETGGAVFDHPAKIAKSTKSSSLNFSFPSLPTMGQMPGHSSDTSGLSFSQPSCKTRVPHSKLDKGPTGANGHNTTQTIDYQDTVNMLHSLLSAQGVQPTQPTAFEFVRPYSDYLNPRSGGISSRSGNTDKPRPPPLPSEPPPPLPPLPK
Method: (§3) CDK2/Cyclin E kinase was produced in Sf9 insect cells via baculoviral infection and purified on a NiNTA column (Qiagen). CDK5/p35, CDK7Cyclin H/MAT1 and CDK9/Cyclin T1 was purchased from ProQinase GmbH. The kinase reactions were assayed with 1 mg/mL histone H1 (for CDK2 and CDK5) or (YSPTSPS)2KK peptide (for CDK7 and CDK9) in the presence of 15/0.15/1.5/1.5 μM ATP (for CDK2/CDK5/CDK7CDK9), 0.05 μCi [γ-^33P]ATP and of the test compound in a final volume of 10 μL, all in a reaction buffer (60 mM HEPES-NaOH, pH 7.5, 3 mM MgCl2, 3 mM MnCl2, 3 μM Na-orthovanadate, 1.2 mM DTT, 2.5 μg/50 μl PEG20,000). The reactions were stopped by adding 5 μL of 3% aq H3PO4. Aliquots were spotted onto P-81 phosphocellulose (Whatman), washed 3× with 0.5% aq H3PO4 and finally air-dried.
(§4) CDK1/cyclin B and CDK2/cyclin E kinases were produced in Sf9 insect cells via baculoviral infection, while CDK5/p35, CDK7/cyclin H/MAT1, and CDK9/cyclin T1 were purchased from ProQinase (Freiburg, Germany) and assayed as described previously (35). The kinase reactions were assayed with 1 mg/ml histone H1 (for CDK2 and CDK5) or (YSPTSPS)2KK peptide (for CDK7 and CDK9) in the presence of 15/0.15/1.5/1.5 […] ATP (for CDK2/CDK5/CDK7CDK9), […] [γ-^33P]ATP and of the test compound in a final volume of […]. The reaction buffer contained 60 mM HEPES-NaOH, pH 7.5, 3 mM MgCl2, 3 mM MnCl2, 3 mM Na-orthovanadate, 1.2 mM DTT, 2.5 mg/50 ml PEG20.000. The reactions were stopped by adding […] of 3% H3PO4. Aliquots were spotted onto P-81 phosphocellulose (Whatman, GE Healthcare Biosciences, Pittsburgh, USA), washed 3 times with 0.5% H3PO4 and finally air-dried. Kinase inhibition was quantified using a FLA-7000 digital image analyzer (Fujifilm, Tokyo, Japan).

CDK7/cyclin H/MAT1 = target: T2, CDK7/cyclin H/MAT1 (Homo sapiens, UniProt P50613); assay: as above; type: biochemical; conditions: read-out: Residual kinase activity, CDK7
T2 construct: purchased ProQinase GmbH (Freiburg, Germany)
T2 sequence (P50613 whole entry): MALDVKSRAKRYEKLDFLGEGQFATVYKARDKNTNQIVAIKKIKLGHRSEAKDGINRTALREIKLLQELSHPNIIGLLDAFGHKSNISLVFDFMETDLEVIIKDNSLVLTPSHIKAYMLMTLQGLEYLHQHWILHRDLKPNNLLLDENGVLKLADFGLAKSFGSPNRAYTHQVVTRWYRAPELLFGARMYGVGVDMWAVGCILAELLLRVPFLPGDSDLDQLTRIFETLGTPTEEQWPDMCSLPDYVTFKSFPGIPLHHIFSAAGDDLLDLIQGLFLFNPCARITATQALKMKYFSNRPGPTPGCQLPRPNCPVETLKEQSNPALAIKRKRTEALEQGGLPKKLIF
T2 sequence (P51946 whole entry partner): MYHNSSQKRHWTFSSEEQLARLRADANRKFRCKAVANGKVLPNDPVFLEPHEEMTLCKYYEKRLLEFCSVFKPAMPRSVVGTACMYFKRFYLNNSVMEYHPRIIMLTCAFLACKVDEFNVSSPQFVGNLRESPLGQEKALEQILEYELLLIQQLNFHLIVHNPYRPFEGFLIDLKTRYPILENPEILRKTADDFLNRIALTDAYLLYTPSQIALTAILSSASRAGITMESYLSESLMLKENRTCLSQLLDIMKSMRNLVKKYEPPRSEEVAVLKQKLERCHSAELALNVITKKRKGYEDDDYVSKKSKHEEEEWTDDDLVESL
T2 sequence (P51948 whole entry partner): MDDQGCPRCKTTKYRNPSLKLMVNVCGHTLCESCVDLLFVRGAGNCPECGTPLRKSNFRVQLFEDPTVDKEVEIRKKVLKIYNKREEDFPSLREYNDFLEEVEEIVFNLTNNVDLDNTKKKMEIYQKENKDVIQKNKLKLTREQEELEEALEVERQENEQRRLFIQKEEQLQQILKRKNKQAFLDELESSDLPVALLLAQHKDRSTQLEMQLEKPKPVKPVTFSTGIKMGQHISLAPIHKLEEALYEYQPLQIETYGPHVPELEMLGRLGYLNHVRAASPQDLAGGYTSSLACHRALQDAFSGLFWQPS
Method: as §3, §4

CDK5/p35 = target: T3, CDK5/p35 (Homo sapiens, UniProt Q00535); assay: as above; type: biochemical; conditions: read-out: Residual kinase activity, CDK5
T3 construct: purchased ProQinase GmbH (Freiburg, Germany)
T3 sequence (Q00535 whole entry): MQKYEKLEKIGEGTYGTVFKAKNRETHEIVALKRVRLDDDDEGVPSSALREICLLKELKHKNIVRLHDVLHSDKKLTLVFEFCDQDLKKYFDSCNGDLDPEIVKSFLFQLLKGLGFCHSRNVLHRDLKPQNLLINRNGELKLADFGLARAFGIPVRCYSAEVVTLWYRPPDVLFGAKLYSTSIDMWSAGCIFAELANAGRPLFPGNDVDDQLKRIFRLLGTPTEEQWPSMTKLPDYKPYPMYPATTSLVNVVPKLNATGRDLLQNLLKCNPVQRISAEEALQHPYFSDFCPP
T3 sequence (Q15078 whole entry partner): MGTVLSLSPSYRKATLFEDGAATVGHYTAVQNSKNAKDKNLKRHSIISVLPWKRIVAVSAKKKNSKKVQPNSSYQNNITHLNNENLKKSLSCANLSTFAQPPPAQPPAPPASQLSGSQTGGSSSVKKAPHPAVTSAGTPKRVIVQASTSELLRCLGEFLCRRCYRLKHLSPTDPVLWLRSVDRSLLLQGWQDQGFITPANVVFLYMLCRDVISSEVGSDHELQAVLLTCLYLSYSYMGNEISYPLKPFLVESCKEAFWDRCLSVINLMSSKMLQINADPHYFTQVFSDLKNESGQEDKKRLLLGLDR
Method: as §3, §4

| Structure (SMILES) | IC50 (Hep3B) [nM] | IC50 (HCC-1.2 (3p)) [nM] | IC50 (HCC-1.1 (3sp)) [nM] | IC50 (PLC/PRF/5) [nM] | IC50 (HUH-7) [nM] | IC50 ([1]; 24 h) [nM] | IC50 ([1]; 72 h) [nM] | Wound area ([2]; 100 nM) | Wound area ([2]; 1000 nM) | remaining activity at 0.1 µM (CDK9/Cyclin T1; 100 nM, read-out: Residual kinase activity, CDK9) [%] | remaining activity at 1 µM (CDK9/Cyclin T1; 1000 nM, read-out: Residual kinase activity, CDK9) [%] | IC50 (CDK9/Cyclin T1; Table 12, read-out: IC50, CDK9/cyklin T) [nM] | remaining activity at 0.1 µM (CDK7/cyclin H/MAT1; 100 nM) [%] | remaining activity at 1 µM (CDK7/cyclin H/MAT1; 1000 nM) [%] | remaining activity at 0.1 µM (CDK5/p35; 100 nM) [%] | remaining activity at 1 µM (CDK5/p35; 1000 nM) [%] |
| --- | --- | --- | --- | --- | --- | --- | --- | --- | --- | --- | --- | --- | --- | --- | --- | --- |
| NC1CCC(Nc2nc(NCc3ccc(-c4cccs4)cc3)c3ncn(C4CCCC4)c3n2)CC1 (stereo not drawn) [BP2, N^2-(4-amino-cyclohexyl)-9-cyclopentyl-N^6-(4-thiophen-2-yl-benzyl)-9H-purine-2,6-diamine] | 460 | 317 | 466 | 105 | 319 |  |  |  |  |  |  |  |  |  |  |  |
| NC1CCC(Nc2nc(NCc3ccc(-c4ccco4)cc3)c3ncn(C4CCCC4)c3n2)CC1 (stereo not drawn) [BP4, N^2-(4-amino-cyclohexyl)-9-cyclopentyl-N^6-(4-furan-2-yl-benzyl)-9H-purine-2,6-diamine] | 708 | 802 | 813 | 106 | 355 | 15700 | 450 | 0 | ++ |  |  |  |  |  |  |  |
| NC1CCC(Nc2nc(NCc3ccc(-c4ccsc4)cc3)c3ncn(C4CCCC4)c3n2)CC1 (stereo not drawn) [BP5, N^2-(4-amino-cyclohexyl)-9-cyclopentyl-N^6-(4-thiophen-3-yl-benzyl)-9H-purine-2,6-diamine] | 405 | 420 | 454 | 60 | 231 |  |  |  |  |  |  |  |  |  |  |  |
| NC1CCC(Nc2nc(NCc3ccc(-c4cccc(F)c4)cc3)c3ncn(C4CCCC4)c3n2)CC1 (stereo not drawn) [BP12, N^2-(4-amino-cyclohexyl)-9-cyclopentyl-N^6-(3′-fluoro-biphenyl-4-ylmethyl)-9H-purine-2,6-diamine] | 418 | 288 | 492 | 77 | 199 |  |  |  |  |  |  |  |  |  |  |  |
| NC1CCC(Nc2nc(NCc3ccc(-c4ccoc4)cc3)c3ncn(C4CCCC4)c3n2)CC1 (stereo not drawn) [BP13, N^2-(4-amino-cyclohexyl)-9-cyclopentyl-N^6-(4-furan-3-yl-benzyl)-9H-purine-2,6-diamine] | 518 | 602 | 613 | 76 | 339 |  |  |  |  |  |  |  |  |  |  |  |
| NC1CCC(Nc2nc(NCc3ccc(-c4ccco4)nc3)c3ncn(C4CCCC4)c3n2)CC1 (stereo not drawn) [BP14, N^2-(4-amino-cyclohexyl)-9-cyclopentyl-N^6-(6-furan-2-yl-pyridin-3-ylmethyl)-9H-purine-2,6-diamine] | 58 | 410 | 513 | 7 | 373 | > 50000 | 50 | + | ++ | 22.3 | 0.73 | 7 | 54.8 | 23.9 | 37.8 | 24.8 |
